Laboratory results from patent US9453038B2, “Glucokinase activator compounds, compositions containing such compounds, and methods of treatment” (Merck Sharp & Dohme Corp., priority 2012, dated 2016).

Molecular target: Recombinant human liver glucokinase (FLAG fusion protein) (Homo sapiens (Human), UniProt P35557)
Test: glucokinase (GK) activation assay, Thio-NADH formation coupled to G6PDH, absorbance at 405 nm
Format: biochemical
Settings: 2.5 mM Glu; for EC50: 30° C.; for Emax: OD value of DMSO control regarded as 100%, read-out: Emax
Text: The glucokinase activity can, for instance, be determined without directly measuring glucose-6-phosphate by measuring the amount of Thio-NADH generated during the production of phosphogluconolactone from glucose-6-phosphate by a reporter enzyme glucose-6-phosphate dehydrogenase.
To test the exemplified compounds, the following assay was employed. Recombinant human liver glucokinase was expressed as a FLAG fusion protein in E. coli, and purified on ANTIFLAG M2 AFFINITY GEL (Sigma). The assay was carried out at 30° C. in a 96-well plate. In the plate was distributed 69 μl each of assay buffer (25 mM Hepes Buffer: pH=7.2, 2 mM MgCl2, 1 mM ATP, 0.5 mM TNAD, 1 mM dithiothreitol), to which was added 1 μl of a DMSO solution of the compound or DMSO as control. Then, 20 μl of pre-ice-cooled enzyme mixture (FLAG-GK, 20 U/ml G6PDH) was distributed thereto, to which was added 10 μl of 25 mM glucose as substrate to initiate the reaction (final glucose concentration=2.5 mM). After starting the reaction, the absorbance at 405 nm was measured every 30 seconds for 10 minutes to evaluate the compound based on the initial increase for 5 minutes. FLAG-GK was added so that the increase of absorbance after 5 minutes fell between 0.05 to 0.1 in the presence of 1% DMSO.
The OD values of the respective compounds were measured in the respective concentrations, wherein the OD value of DMSO as control is regarded as 100%. From the OD values at the respective concentrations, Emax (%, 2.5 mM Glu) and EC50 (nM, 2.5 mM Glu) were calculated and used as indicators of the GK activation capability of the compounds. According to the above assay, the GK activation capability of the exemplified compounds of the present invention was determined. […] Where different enantiomers of the same compound were tested, two numbers are provided. Where 3 numbers are provided, for example, Ex. #30, data for the racemic form is also shown.

Recombinant human liver glucokinase (FLAG fusion protein), sequence (P35557 other isoform, or with tags, fused parts or gaps): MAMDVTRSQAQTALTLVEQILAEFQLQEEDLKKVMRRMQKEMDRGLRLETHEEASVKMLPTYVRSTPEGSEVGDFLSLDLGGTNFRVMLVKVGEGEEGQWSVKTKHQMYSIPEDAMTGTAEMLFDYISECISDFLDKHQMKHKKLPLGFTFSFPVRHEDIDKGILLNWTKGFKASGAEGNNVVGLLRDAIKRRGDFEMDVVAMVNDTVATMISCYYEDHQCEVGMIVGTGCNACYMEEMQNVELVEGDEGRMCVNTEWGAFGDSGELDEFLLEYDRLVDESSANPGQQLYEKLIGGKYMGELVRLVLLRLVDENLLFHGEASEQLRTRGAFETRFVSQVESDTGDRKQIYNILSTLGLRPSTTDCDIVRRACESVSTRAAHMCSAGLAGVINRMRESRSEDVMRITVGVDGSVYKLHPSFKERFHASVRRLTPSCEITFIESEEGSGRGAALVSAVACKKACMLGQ

Row | EC50 [nM] | Emax [%] | SMILES
1 | 8.9 | 656 | COC(=O)CCc1cnc(-c2cc3cc(Oc4ccc(S(C)(=O)=O)cc4)c(C4CCC(=O)N4C)cc3[nH]2)s1 (stereo not drawn) [Example 35, methyl 3-(2-(6-(1-methyl-5-oxopyrrolidin-2-yl)-5-(4-(methylsulfonyl)phenoxy)-1H-indol-2-yl)thiazol-5-yl)propanoate]
2 | 66.7 | 619 | CN1C(=O)CCC1c1cc2[nH]c(-c3ncc(CCC(=O)O)s3)cc2cc1Oc1ccc(S(C)(=O)=O)cc1 (stereo not drawn) [Example 36, 3-(2-(6-(1-methyl-5-oxopyrrolidin-2-yl)-5-(4-(methylsulfonyl)phenoxy)-1H-indol-2-yl)thiazol-5-yl)propanoic acid]

Row | SMILES | EC50 [nM] | Emax [%]
3 | CCOP(=O)(Cc1cnc(-c2cc3cc(Oc4ccc(S(C)(=O)=O)nc4)c(C4CCC(=O)N4C)cc3[nH]2)s1)OCC (stereo not drawn) [Example 37, diethyl((2-(6-(1-methyl-5-oxopyrrolidin-2-yl)-5-((6-(methylsulfonyl)pyridin-3-yl)oxy)-1H-indol-2-yl)thiazol-5-yl)methyl)phosphonate] | 23.5 | 696
